Laboratory results: patent US10725049B2, “Methods of detecting and measuring glutamine and analogues thereof, and methods related thereto” (Victoria Link Limited, priority 2013, dated 2020)

B1: BpsA: single module non-ribosomal peptide synthetase from Streptomyces lavendulae, SEQ ID NO:2 (protein, listed as Streptomyces lavendulae)
chain: MTLQETSVLEPTLQGTTTLPGLLAQRVAEHPEAIAVAYRDDKLTFRELASRSAALADYLEHLGVSADDCVGLFVEPSIDLMVGAWGILNAGAAYLPLSPEYPEDRLRYMIENSETKIILAQQRLVSRLRELAPKDVTIVTLRESEAFVRPEGTEAPAARSARPDTLAYVIYTSGSTGKPKGVMIEHRSIVNQLGWLRETYAIDRSKVILQKTPMSFDAAQWEILSPANGATVVMGAPGVYADPEGLIETIVKHNVTTLQCVPTLLQGLIDTEKFPECVSLQQIFSGGEALSRLLAIQTTQEMPGRALINVYGPTETTINSSSFPVDPADLDEGPQSISIGSPVHGTTYHILDKETLKPVGVGEIGELYIGGIQLARGYLHRDDLTAERFLEIELEEGAEPVRLYKTGDLGQWNNDGTVQFAGRADNQVKLRGYRVELDEISLAIENHDWVRNAAVIVKNDGRTGFQNLIACIELSEKEAALMDQGNHGSHHASKKSKLQVKAQLSNPGLRDDAELAARPAFDLEGAEPTPEQRARVFARKTYRFYEGGAVTQADLLGLLGATVTAGYSRKAADLAPAELGQILRWFGQYISEERLLPKYGYASPGALYATQMYFELEGVGGLKPGYYYYQPVRHQLVLISEREATGKATAQIHFIGKKSGIEPVYKNNILEVLEIETGHMVGLFEQILPAYGLDIHDRAYEPAVKDLLDVADEDYYLGTFELVPHAGARDDQAEVYVQTHGGKVAGLPEGQYRYENGELTRFSDDIVLKKHVIAINQSVYQAASFGISVYSRAEEEWLKYITLGKKLQHLMMNGLNLGFMSSGYSSKTGNPLPASRRMDAVLGANGVDSAPMYFFVGGRISDEQIGHEGMREDSVHMRGPAELIRDDLVSFLPDYMIPNRVVVFDRLPLSANGKIDVKALAASDQVNAELVERPFVAPRTETEKEIAAVWEKALRRENASVQDDFFESGGNSLIAVGLVRELNARLGVSLPLQSVLESPTIEKLARRLEREVAQESSRFVRLHAETGKARPVICWPGLGGYPMNLRSLAGEIGLGRSFYGVQSYGINEGETPYETITEMAKKDIEALKEIQPAGPYTLWGYSFGARVAFETAYQLEQAGEKVDNLFLIAPGSPKVRAENGKVWGREASFANRGYTTILFSVFTGTISGPDLDRCLETVTDEASFAEFISELKGIDVDLARRIISVVGQTYEFEYSFHELAERTLQAPISIFKAVGDDYSFLENSSGYSAEPPTVIDLDADHYSLLREDIGELVKHIRYLLGE

Assays:
BpsA [1] = biological target: T1, BpsA (Streptomyces lavendulae, UniProt Q1MWN4); test: BpsA end-point assay measuring L-glutamine in complex biological media (indigoidine re-solubilised in DMSO, A590); details: for Spiked − unspiked (μM L-glutamine +/− 1 std dev): 300 μM spike
Method: For improved accuracy, reproducibility, and robustness, it is generally preferable to use an end-point assay over a kinetic assay. An end-point assay for BpsA was designed and carried out as follows. In these experiments, 40 μL indigoidine-producing reactions were run until all glutamine present was consumed, and then all the indigoidine was solubilised by adding 190 μL of the organosulfur solvent dimethyl sulfoxide (DMSO).
Indigoidine synthesis reactions were initiated by addition of 10 μL of each L-glutamine concentration standard in triplicate. […] The 96 plate was then mixed at 1000 rpm for 10 seconds and incubated at room temperature for 45 minutes to enable complete reaction of all L-glutamine present in each well. After this, 190 μL of DMSO heated to 50° C. was added to each well to solubilise the indigoidine. The 96 well plate was then incubated at room temperature with shaking at 2500 rpm for 10 minutes. […] This yielded a standard curve with an excellent straight line fit (FIG. 4).
For these experiments, standard samples (10 μL per well) were prepared in triplicate in ddH2O as per Example 4 at the following concentrations: 1000 μM, 800 μM, 600 μM, 400 μM, 200 μM, and 0 μM. Alongside these were aliquoted paired triplicate samples (10 μL per well) of the following media: adult bovine serum (purchased from Sigma-Aldrich), human urine, LB, DMEM, and ddH2O. For each medium, one of the two paired triplicate sets was spiked (amended) with 300 μM L-glutamine, while the other was left unspiked. Indigoidine synthesis was initiated by addition of 30 μL reaction mix (as described in Table 4) to each sample-containing well. The 96 well plate was then mixed at 1000 rpm for 10 seconds and incubated at room temperature for one hour, after which 180 μL of DMSO heated to 50° C. was added to each well. The plate was then shaken at 2500 rpm for 10 minutes to fully solubilise the indigoidine.
It was observed that the serum containing wells went immediately cloudy upon addition of DMSO, preventing meaningful A590 readings from being obtained for those samples. In all other cases, a single A590 reading for each well was recorded. For each sample, triplicate A590 values were averaged and this value was used to quantify glutamine levels based on the standard curve generated from the standard samples. With the exception of the ddH2O, it was unknown what the starting concentration of L-glutamine was in each medium being tested. However, the comparison of measured L-glutamine levels in spiked versus unspiked samples for each medium enabled assessment of the accuracy of the BpsA end-point assay in measuring L-glutamine concentrations in that medium.

BpsA [2] = biological target: T1, BpsA; test: Relative reaction rate of L-glutamine versus analogue with BpsA; assay type: biochemical; details: L-glutamine faster than an analogue (e.g. L-glycyl glutamine)
Method: Without wishing to be bound by theory, it is believed that BpsA or a related enzyme can be used to measure both L-glutamine and a glutamine analogue (e.g., L-glycyl glutamine) in the same sample. Experiments have shown that L-glutamine reacts much faster with BpsA (˜100-1000 fold) than an analogue. Thus, it would be possible to incubate the sample for a short period (e.g., 2 minutes), remove the blue pigment, and measure the pigment levels to calculate L-glutamine levels. It would then be possible to wait for a further longer period (e.g., 8 hours), and measure the remaining blue pigment to calculate analogue levels (e.g., L-glycyl glutamine). It is expected that there would be little contamination of the glutamine-based product by the analogue-based product based on the enzymatic profile for BpsA.

[3] = Stability of BpsA over time on storage; assay type: physicochemical; details: 24 weeks
Method: To monitor stability of Bps A over time after storage at these conditions, two BpsA samples were stored, one at 25° C. and one at 4° C. The two samples were then compared to recently purified BpsA. The BpsA stored at 4° C. retained 96% activity and the BpsA stored at 25° C. retained 15% activity after 24 weeks compared to the recently purified BpsA.

[4] = BpsA functionality (indigoidine synthesis from L-glutamine) in the presence of DMSO; assay type: biochemical
Method: In these experiments, samples of 500 μM L-glutamine were prepared in ddH2O amended with DMSO to a final DMSO concentration (v/v) of either 0%, 10%, 20%, 30% or 35%. A master mix with final reagent concentrations as indicated in Table 5 was prepared and dispensed into 18 wells of a fresh 96 well plate at a volume of 20 μL per well.
To test whether full L-glutamine conversion had been achieved in the presence of DMSO, 180 μL of DMSO heated to 50° C. was then added to each well to completely solubilise the indigoidine. The 96 well plate was then incubated at room temperature with shaking at 2500 rpm for 10 minutes. Following this, a single A590 reading was taken and the average of the triplicate values were graphed (FIG. 5B).

Molecule | Spiked sample measurement (μM L-glutamine +/− 1 std dev) (BpsA [1]; DMEM spiked with 300 μM L-glutamine, standard curve in ddH2O) | Unspiked sample measurement (μM L-glutamine +/− 1 std dev) (BpsA [1]; DMEM) | Spiked − unspiked (μM L-glutamine +/− 1 std dev) (BpsA [1]; DMEM) | Spiked sample measurement (μM L-glutamine +/− 1 std dev) (BpsA [1]; LB spiked with 300 μM L-glutamine, standard curve in ddH2O) | Unspiked sample measurement (μM L-glutamine +/− 1 std dev) (BpsA [1]; LB) | Spiked − unspiked (μM L-glutamine +/− 1 std dev) (BpsA [1]; LB) | Spiked sample measurement (μM L-glutamine +/− 1 std dev) (BpsA [1]; ddH2O spiked with 300 μM L-glutamine) | Spiked − unspiked (μM L-glutamine +/− 1 std dev) (BpsA [1]; ddH2O) | Spiked sample measurement (μM L-glutamine +/− 1 std dev) (BpsA [1]; human urine spiked with 300 μM L-glutamine, standard curve in ddH2O) | Unspiked sample measurement (μM L-glutamine +/− 1 std dev) (BpsA [1]; human urine) | Spiked − unspiked (μM L-glutamine +/− 1 std dev) (BpsA [1]; human urine) | Reaction rate with BpsA relative to an analogue (BpsA [2]) | Activity retained compared to recently purified BpsA ([3]; stored at 4° C.) | Activity retained compared to recently purified BpsA ([3]; stored at 25° C.) | BpsA activity in the presence of DMSO ([4]; 0-35% DMSO v/v, end-point A590 after full solubilisation) | DMSO concentration up to which BpsA retains partial functionality ([4]; 500 μM L-glutamine, DMSO v/v)
NC(=O)CC[C@H](N)C(=O)O [L-glutamine] | 427.4 ± 4.6 µM | 20.3 ± 2.7 µM | 407.0 ± 5.4 µM | 377.9 ± 14.1 µM | 49.6 ± 5.3 µM | 328.1 ± 15.2 µM | 319.0 ± 5.4 µM | 319.0 ± 5.4 µM | 295.8 ± 7.1 µM | 71.4 ± 23.6 µM | 224.4 ± 24.9 µM | 100-1000 fold |  |  |  | 
B1 |  |  |  |  |  |  |  |  |  |  |  |  | 96% | 15% | impaired at all concentrations of DMSO | up to 35%
